Measured values published in US20190367516A1 (Bayer Pharma Aktiengesellschaft, priority 2015, published 2019).
Read-outs that look alike come from different tables or passages of the source.

Experiments:
human M2 receptor [1] = target: T1, human M2 receptor (Homo sapiens, UniProt P08172); assay type: cell-based; conditions: α >1 = positive cooperativity
T1 sequence (P08172 1-466): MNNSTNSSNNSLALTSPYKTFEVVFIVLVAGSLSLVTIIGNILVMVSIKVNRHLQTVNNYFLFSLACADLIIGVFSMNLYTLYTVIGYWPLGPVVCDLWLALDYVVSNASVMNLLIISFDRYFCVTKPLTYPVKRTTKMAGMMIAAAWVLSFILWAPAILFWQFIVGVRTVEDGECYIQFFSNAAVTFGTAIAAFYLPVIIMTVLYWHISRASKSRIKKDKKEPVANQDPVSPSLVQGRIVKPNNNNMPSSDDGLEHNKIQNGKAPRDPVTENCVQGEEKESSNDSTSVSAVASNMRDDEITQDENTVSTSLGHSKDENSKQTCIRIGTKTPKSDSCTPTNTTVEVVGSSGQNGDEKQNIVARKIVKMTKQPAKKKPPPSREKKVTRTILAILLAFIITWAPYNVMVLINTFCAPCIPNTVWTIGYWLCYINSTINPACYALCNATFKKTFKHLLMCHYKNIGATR
Experimental: B-1.2. Determination of Positive Cooperativity (α Factor)
In contrast to the EC50 determination of the test substances (see B-1.1), however, this is not done using one acetylcholine concentration; instead, every concentration of the test substance is combined with an acetylcholine 8-point dose-response curve. […] The shift in the acetylcholine dose-response curve in the presence of increasing concentrations of the test substance is analysed and quantified by means of GraphPad PRISM (Allosteric EC50 shift). […] Positive cooperativity is the hallmark of a positive allosteric modulator. […] The greater the magnitude of the α value, the greater the extent of cooperativity between orthosteric and allosteric.

human M2 receptor [2] = target: T1, human M2 receptor; conditions: for Efficiency: boosting of the acetylcholine effect at EC20 acetylcholine concentration; for Emax: read-out: Efficiency, boosting of the acetylcholine effect at EC20 acetylcholine concentration
[3] = shift in the acetylcholine dose-response curve (Allosteric EC50 shift, GraphPad PRISM)
[4] = Receptor activity EC50, M2-GIRK1/4 activation test, acetylcholine at EC20, allosteric potency, in some cases mean values from two or more determinations
[5] = shift of acetylcholine dose-response curve (Allosteric EC50 shift)
[6] = Receptor activity EC50, allosteric potency at EC20 acetylcholine, M2-GIRK1/4 reporter cells, in some cases mean of two or more determinations

SMILES	Cooperativity (alpha factor) (human M2 receptor [1]; [3])	EC50 (human M2 receptor [2]; [4]) [nM]	other results
CC[C@H](NC(=O)c1cn(-c2ccc(F)cc2F)c2nc(N3CC=CC3=O)ccc2c1=O)C(F)(F)F [Example 286, 1-(2,4-Difluorophenyl)-4-oxo-7-(2-oxo-2,5-dihydro-1H-pyrrol-1-yl)-N-[(2S)-1,1,1-trifluorobutan-2-yl]-1,4-dihydro-1,8-naphthyridine-3-carboxamide]	3	94	–
O=C(NC(C1CCC1)C(F)(F)F)c1cn(-c2c(F)cc(F)cc2F)c2nc(N3C[C@@H](O)CC3=O)ccc2c1=O (single isomer, unassigned) [Example 507]	–	–	Cooperativity (alpha factor) (human M2 receptor [1]; [5]): 37; EC50 (human M2 receptor [2]; [6]): 6 nM; Efficiency (human M2 receptor [2]; M2-GIRK1/4 reporter cells): 98.0%
CC(C)C(NC(=O)c1cn(-c2c(F)cc(F)cc2F)c2nc(N3CCNC3=O)ccc2c1=O)C(F)(F)F (racemic) [Example 537, 4-Oxo-7-(2-oxoimidazolidin-1-yl)-N-[1,1,1-trifluoro-3-methylbutan-2-yl]-1-(2,4,6-trifluorophenyl)-1,4-dihydro-1,8-naphthyridine-3-carboxamide]	–	–	Cooperativity (alpha factor) (human M2 receptor [1]; [5]): 31; EC50 (human M2 receptor [2]; [6]): 10 nM; Efficiency (human M2 receptor [2]; M2-GIRK1/4 reporter cells): 92.0%
CC[C@@H](NC(=O)c1cn(-c2ccc(F)cc2F)c2nc(N3CC[C@@H](F)[C@H](O)C3)ccc2c1=O)C(F)(F)F [Example 33, 1-(2,4-Difluorophenyl)-7-[(3R,4R)-4-fluoro-3-hydroxypiperidin-1-yl]-4-oxo-N-[(2R)-1,1,1-trifluorobutan-2-yl]-1,4-dihydro-1,8-naphthyridine-3-carboxamide]	20	91	–
CC(C)(NC(=O)c1cn(-c2c(F)cc(F)cc2F)c2nc(N3CC[C@@H](O)C3=O)ccc2c1=O)C(F)(F)F [Example 488, 7-[(3R)-3-Hydroxy-2-oxopyrrolidin-1-yl]-4-oxo-N-(1,1,1-trifluoro-2-methylpropan-2-yl)-1-(2,4,6-trifluorophenyl)-1,4-dihydro-1,8-naphthyridine-3-carboxamide]	–	–	Cooperativity (alpha factor) (human M2 receptor [1]; [5]): 53; EC50 (human M2 receptor [2]; [6]): 24 nM; Emax (human M2 receptor [2]; M2-GIRK1/4 reporter cells): 96%
CC(NC(=O)c1cn(-c2c(F)cc(F)cc2F)c2nc(N3CCNC3=O)ccc2c1=O)C(F)(F)C(F)(F)F (racemic) [Example 542, 4-Oxo-7-(2-oxoimidazolidin-1-yl)-N-[3,3,4,4,4-pentafluorobutan-2-yl]-1-(2,4,6-trifluorophenyl)-1,4-dihydro-1,8-naphthyridine-3-carboxamide]	–	–	Cooperativity (alpha factor) (human M2 receptor [1]; [5]): 36; EC50 (human M2 receptor [2]; [6]): 19 nM; Efficiency (human M2 receptor [2]; M2-GIRK1/4 reporter cells): 98.5%
CC[C@@H](NC(=O)c1cn(-c2ccc(F)cc2F)c2nc(N3CCC4(C3)CC4(F)F)ccc2c1=O)C(F)(F)F (mixture of isomers) [Example 29, 7-(1,1-Difluoro-5-azaspiro[2.4]hept-5-yl)-1-(2,4-difluorophenyl)-4-oxo-N-[(2R)-1,1,1-trifluorobutan-2-yl]-1,4-dihydro-1,8-naphthyridine-3-carboxamide (diastereomer mixture)]	4	112	–
O=C(NC12CC3CC(CC(C3)C1)C2)c1cn(-c2ccc(F)cc2F)c2nc(N3CC(F)CC3=O)ccc2c1=O (stereo not drawn) [Example 187, 1-(2,4-Difluorophenyl)-7-[4-fluoro-2-oxopyrrolidin-1-yl]-4-oxo-N-(tricyclo[3.3.1.1^3,7]dec-1-yl)-1,4-dihydro-1,8-naphthyridine-3-carboxamide]	10	98	–
O=C(NC(c1ccccc1Cl)C(F)(F)F)c1cn(-c2ccc(F)cc2F)c2nc(N3CC[C@H](F)C3)ccc2c1=O (stereo partly drawn) [Example 217, N-[1-(2-Chlorophenyl)-2,2,2-trifluoroethyl]-1-(2,4-difluorophenyl)-7-[(3S)-3-fluoropyrrolidin-1-yl]-4-oxo-1,4-dihydro-1,8-naphthyridine-3-carboxamide]	18	36	–
CN(CCO)c1ccc2c(=O)c(C(=O)N[C@@H](C3CC3)C(F)(F)F)cn(-c3c(F)cc(F)cc3F)c2n1 [Example 384, N-[(1S)-1-Cyclopropyl-2,2,2-trifluoroethyl]-7-[(2-hydroxyethyl)(methyl)amino]-4-oxo-1-(2,4,6-trifluorophenyl)-1,4-dihydro-1,8-naphthyridine-3-carboxamide]	22	28	–
CC[C@@H](NC(=O)c1cn(-c2ccc(F)cc2F)c2nc(N3CC4CC4(O)C3)ccc2c1=O)C(F)(F)F (single isomer, unassigned) [Example 314]	24	27	–
CC(COC(F)(F)F)NC(=O)c1cn(-c2ccc(F)cc2F)c2nc(N3CC[C@H](F)C3)ccc2c1=O (single isomer, unassigned) [Example 229]	13	52	–
O=C(NC(C1CC1)C(F)(F)F)c1cn(-c2ccccc2Cl)c2nc(N3C[C@@H](O)CC3=O)ccc2c1=O (mixture of isomers) [Example 279, 1-(2-Chlorophenyl)-N-[1-cyclopropyl-2,2,2-trifluoroethyl]-7-[(4S)-4-hydroxy-2-oxopyrrolidin-1-yl]-4-oxo-1,4-dihydro-1,8-naphthyridine-3-carboxamide]	34	66	–
CC[C@H](NC(=O)c1cn(-c2c(F)cc(F)cc2F)c2nc(N3CCN(CCO)C3=O)ccc2c1=O)C(F)(F)F [Example 362, 7-[3-(2-Hydroxyethyl)-2-oxoimidazolidin-1-yl]-4-oxo-N-[(2S)-1,1,1-trifluorobutan-2-yl]-1-(2,4,6-trifluorophenyl)-1,4-dihydro-1,8-naphthyridine-3-carboxamide]	27	–	–
CC[C@@H](NC(=O)c1cn(-c2ccc(F)cc2F)c2nc(N3CCC(C)(OC)C3=O)ccc2c1=O)C(F)(F)F (mixture of isomers) [Example 197, 1-(2,4-Difluorophenyl)-7-[3-methoxy-3-methyl-2-oxopyrrolidin-1-yl]-4-oxo-N-[(2R)-1,1,1-trifluorobutan-2-yl]-1,4-dihydro-1,8-naphthyridine-3-carboxamide]	10	120	–
CC(C)CC(NC(=O)c1cn(-c2ccc(F)cc2F)c2nc(N3CC[C@H](F)C3)ccc2c1=O)C(F)(F)F (stereo partly drawn) [Example 65, 1-(2,4-Difluorophenyl)-7-[(3S)-3-fluoropyrrolidin-1-yl]-4-oxo-N-[1,1,1-trifluoro-4-methylpentan-2-yl]-1,4-dihydro-1,8-naphthyridine-3-carboxamide]	36	7	–
CCC(NC(=O)c1cn(-c2c(F)cc(F)cc2F)c2nc(N3C[C@@H](O)[C@H](O)C3)ccc2c1=O)C(F)(F)C(F)(F)F (single isomer, unassigned) [Example 524]	–	–	Cooperativity (alpha factor) (human M2 receptor [1]; [5]): 60
CN(C)c1ccc2c(=O)c(C(=O)NCc3c(Cl)cccc3C(F)(F)F)cn(-c3ccc(F)cc3F)c2n1 [Example 58, N-[2-Chloro-6-(trifluoromethyl)benzyl]-1-(2,4-difluorophenyl)-7-(dimethylamino)-4-oxo-1,4-dihydro-l,8-naphthyridine-3-carboxamide]	9	–	–
CO[C@@H]1CCN(c2ccc3c(=O)c(C(=O)NC(C)(C)c4c(F)cccc4F)cn(-c4ccc(F)cc4F)c3n2)C1 [Example 22, 1-(2,4-Difluorophenyl)-N-[2-(2,6-difluorophenyl)propan-2-yl]-7-[(3R)-3-methoxypyrrolidin-1-yl]-4-oxo-1,4-dihydro-1,8-naphthyridine-3-carboxamide]	–	131	–
CC[C@H](NC(=O)c1cn(-c2c(F)cc(F)cc2F)c2nc(N3CC(O)C4(CC4)C3)ccc2c1=O)C(F)(F)F (mixture of isomers) [Example 619, 7-[7-Hydroxy-5-azaspiro[2.4]hept-5-yl]-4-oxo-N-[(2S)-1,1,1-trifluorobutan-2-yl]-1-(2,4,6-trifluorophenyl)-1,4-dihydro-1,8-naphthyridine-3-carboxamide]	–	–	EC50 (human M2 receptor [2]; [6]): 40 nM; Emax (human M2 receptor [2]; M2-GIRK1/4 reporter cells): 88.6%
O=C(NC(c1ccccc1Cl)C(F)(F)F)c1cn(-c2ccc(F)cc2F)c2nc(N3CC[C@@H](O)C3=O)ccc2c1=O (stereo partly drawn) [Example 299, N-[1-(2-Chlorophenyl)-2,2,2-trifluoroethyl]-1-(2,4-difluorophenyl)-7-[(3R)-3-hydroxy-2-oxopyrrolidin-1-yl]-4-oxo-1,4-dihydro-1,8-naphthyridine-3-carboxamide]	–	56	–
CC[C@H](NC(=O)c1cn(-c2c(F)cccc2Cl)c2nc(N3C[C@@H](O)CC3=O)ccc2c1=O)C(F)(F)F [Example 351, 1-(2-Chloro-6-fluorophenyl)-7-[(4S)-4-hydroxy-2-oxopyrrolidin-1-yl]-4-oxo-N-[(2S)-1,1,1-trifluorobutan-2-yl]-1,4-dihydro-1,8-naphthyridine-3-carboxamide]	–	17	–
